Data taken from US20240360179A1, “STAPLED PEPTIDES AND METHODS THEREOF” (FOG PHARMACEUTICALS, INC., priority 2021, published 2024).

These substances were tested on COLO320DM cells (assay: COLO320DM proliferation assay (CellTiter-Glo)). Conditions: read-out: COLO320DM Proliferation Abs IC50.
Format: cell-based, human
Method: COLO320DM proliferation assay IC50: In some embodiments, inhibition of cell proliferation by provided technologies were assessed using cell lines related to or from certain conditions, disorders or diseases. In some embodiments, cell proliferation was assessed in COLO320DM cells. In some embodiments, assessment was performed using the following procedure: On Day 1, cultured COLO320DM cells in a T75 flask were trypsinized in 3 mL of 0.250% trypsin/EDTA for 5 min and quenched with 10 mL RPMI-1640+4% HI FBS assay media. The cells were spun down at 1200 rpm for 5 min, the cell pellet collected and re-suspended at 5000 cells/mL in assay media. Using a Combi liquid handler, cells were dispensed (50 uL, 250 cells/well) into three 384 well plates. Plates were incubated at 37° C., 5% CO2 for 18-22 h. On day 2, compounds were added. A liquid handling system was used to prepare the compound dilution and dispense compound into assay plates. The compounds were serially diluted 1/2 in 90% DMSO to create a 7 point dose curve. From compound plate, 100 nL of compound were dispensed directly into wells of the assay plates to create a dose curve starting at 20 uM and ending at 313 nM. Assay plates were incubated at 37° C., 5% CO2 for 96 h. On day 6, assay plates were removed from the incubator and allowed to sit at room temperature for 30 min. Using a liquid handler, 20 uL of CellTiter Glo reagent was added to each well. The assay plates were shaken for 2 min and allowed to sit on the bench for 10-15 minutes. The assay plates were read using the CellTiter Glo protocol on a GloMax microplate reader, and the data analyzed using GraphPad Prism. Activities of various agents, including various stapled peptides in Table E2, were confirmed.
In some embodiments, an assessment was performed as follows. On day 0, cells were seeded in cell culture media (RPMI1640, 4% FBS) in a 96-well plate at desired density, typically at 1000 cells/well. On day 1, 10 mM agent stock solution (in DMSO) was first serially diluted into DMSO at 1:2 ratio, followed by diluting with cell culture media at two times of the final concentrations. Finally, agent-containing media were introduced to cell culture wells already having the same volume of cell culture media. Cells were incubated with agents for desired days before lysed for CellTiter-Glo® Luminescent Cell Viability Assay according to the manufacture instruction (Promega, G7570). Luminescent signal was obtained from a microplate reader (GloMax, Promega). Cell viability data was expressed as % relative to DMSO control wells.
Proliferation Assay. In some embodiments, various proliferation assays are utilized to characterize or assess provided technologies. In some embodiments, on day 0, cells were seeded in cell culture media in a 96-well plate at desired density, typically at 1000 cells/well. On day 1, 10 mM compound stock solution was first serially diluted into DMSO, followed by diluting with cell culture media at two times of the final concentrations. Finally, compound-containing media were introduced to cell culture wells already having the same volume of cell culture media. Cells were incubated with compounds for desired days before lysed for CTG according to the manufacture instruction (G7570, Promega). Luminescent signal was obtained from a microplate reader (GloMax, Promega).

| Substance | IC50 [µM] |
| --- | --- |
| Ac-PL3-Asp-Chg-B5-Asp-3COOHF-Aib-Ala-Phe-Lys*3-PyrS2-2ClF-BztA-GlnR*3-NH2 [I-1530] | ≤ 10 |
| Ac-PL3-Asp-Chg-B5-Asp-3COOHF-Aib-Ala-Phe-Lys*3-PyrS2-3Thi-34ClF-GlnR*3-NH2 [I-1037] | ≤ 10 |
| Ac-PL3-Asp-Chg-B5-Asp-3COOHF-Aib-Ala-Phe-Lys*3-PyrS2-Phe-34ClF-GlnR*3-NH2 [I-1048] | ≤ 10 |
| Ac-PL3-Asp-Chg-B5-Asp-3COOHF-Ala-Ala-Phe-Lys*3-PyrS2-2ClF-34ClF-GlnR*3-NH2 [I-1506] | ≤ 10 |
| Ac-PL3-Asp-Chg-B5-Asp-3COOHF-Ala-Ala-Phe-Lys*3-PyrS2-2ClF-BztA-GlnR*3-NH2 [I-1531] | ≤ 10 |
| Ac-PL3-Asp-Chg-B5-Asp-3COOHF-CyLeu-Ala-Phe-Lys*3-PyrS2-3Thi-34ClF-GlnR*3-NH2 [I-1044] | ≤ 10 |
| Ac-PL3-Asp-Chg-B5-Asp-3COOHF-CyLeu-Ala-Phe-Lys*3-PyrS2-Phe-34ClF-GlnR*3-NH2 [I-1056] | ≤ 10 |
| Ac-PL3-Asp-DipA-B5-Asn-3COOHF-nLeu-Ala-Phe-Lys*3-PyrS2-3Thi-34ClF-GlnR*3-NH2 [I-1638] | ≤ 10 |
| Ac-PL3-Asp-DipA-B5-Asp-3COOHF-Aib-Ala-Phe-Lys*3-PyrS2-3Thi-34ClF-GlnR*3-NH2 [I-1108] | ≤ 10 |
| Ac-PL3-Asp-DipA-B5-Asp-3COOHF-Ala-Ala-Phe-Lys*3-PyrS2-3Thi-34ClF-GlnR*3-Ala-Ala-Ala-[mPEG8]-Lys [I-1705] | ≤ 10 |
| Ac-PL3-Asp-DipA-B5-Asp-3COOHF-Ala-Ala-Phe-Lys*3-PyrS2-3Thi-34ClF-GlnR*3-Ala-Ala-Ala-[mPEG37]-Lys [I-1706] | ≤ 10 |
| Ac-PL3-Asp-DipA-B5-Asp-3COOHF-Ala-Ala-Phe-Lys*3-PyrS2-3Thi-34ClF-GlnR*3-Ala-Ala-[Ac-PEG8]-Lys-NH2-NH2 [I-1788] | ≤ 10 |
| Ac-PL3-Asp-DipA-B5-Asp-3COOHF-Ala-Ala-Phe-Lys*3-PyrS2-3Thi-34ClF-GlnR*3-Ala-Ala-[Ac-dPEG2]-Lys-NH2-NH2 [I-1787] | ≤ 10 |
| Ac-PL3-Asp-DipA-B5-Asp-3COOHF-Ala-Ala-Phe-Lys*3-PyrS2-3Thi-34ClF-GlnR*3-Ala-Ala-[C18-PEG8]-Lys-NH2-NH2 [I-1792] | ≤ 10 |
| Ac-PL3-Asp-DipA-B5-Asp-3COOHF-Ala-Ala-Phe-Lys*3-PyrS2-3Thi-34ClF-GlnR*3-Ala-Ala-[C18-dPEG2]-Lys-NH2-NH2 [I-1791] | ≤ 10 |
| Ac-PL3-Asp-DipA-B5-Asp-3COOHF-Ala-Ala-Phe-Lys*3-PyrS2-3Thi-34ClF-GlnR*3-Ala-Ala-[Oct-PEG8]-Lys-NH2-NH2 [I-1790] | ≤ 10 |
| Ac-PL3-Asp-DipA-B5-Asp-3COOHF-Ala-Ala-Phe-Lys*3-PyrS2-3Thi-34ClF-GlnR*3-Ala-Ala-[Oct-dPEG2]-Lys-NH2-NH2 [I-1789] | ≤ 10 |
| Ac-PL3-Asp-DipA-B5-Asp-3COOHF-Ala-Ala-Phe-Lys*3-PyrS2-3Thi-34ClF-GlnR*3-Ala-Ala-[mPEG8]-Lys-NH2 [I-1703] | ≤ 10 |
| Ac-PL3-Asp-DipA-B5-Asp-3COOHF-Ala-Ala-Phe-Lys*3-PyrS2-3Thi-34ClF-GlnR*3-Ala-Ala-[mPEG37]-Lys-NH2 [I-1704] | ≤ 10 |
| Ac-PL3-Asp-DipA-B5-Asp-3COOHF-Ala-Ala-Phe-Lys*3-PyrS2-3Thi-34ClF-GlnR*3-NH2 [I-1111] | ≤ 10 |
| Ac-PL3-Asp-DipA-B5-Asp-3COOHF-Ala-Ala-Phe-Lys*3-PyrS2-3Thi-34ClF-GlnR*3-[mPEG8]-Lys-NH2 [I-1701] | ≤ 10 |
| Ac-PL3-Asp-DipA-B5-Asp-3COOHF-Ala-Ala-Phe-Lys*3-PyrS2-3Thi-34ClF-GlnR*3-[mPEG37]-Lys-NH2 [I-1702] | ≤ 10 |
| Ac-PL3-Asp-DipA-B5-Asp-3COOHF-Ala-Ala-Phe-Lys*3-PyrS2-3Thi-BztA-GlnR*3-Ala-NH2 [I-982] | ≤ 10 |
| Ac-PL3-Asp-DipA-B5-Asp-3COOHF-CyLeu-Ala-Phe-Lys*3-PyrS2-2F3MeF-34ClF-GlnR*3-Leu-NH2 [I-1769] | ≤ 10 |
| Ac-PL3-Asp-DipA-B5-Asp-3COOHF-CyLeu-Ala-Phe-Lys*3-PyrS2-2F3MeF-34ClF-GlnR*3-Val-NH2 [I-1773] | ≤ 10 |
| Ac-PL3-Asp-DipA-B5-Asp-3COOHF-CyLeu-Ala-Phe-Lys*3-PyrS2-2F3MeF-BztA-GlnR*3-Leu-NH2 [I-1770] | ≤ 10 |

| Substance | IC50 [µM] |
| --- | --- |
| Ac-PL3-Asp-DipA-B5-Asp-3COOHF-CyLeu-Ala-Phe-Lys*3-PyrS2-2F3MeF-BztA-GlnR*3-NH2 [I-1766] | > 20 |
| Ac-PL3-Asp-DipA-B5-Asp-3COOHF-CyLeu-Ala-Phe-Lys*3-PyrS2-2F3MeF-BztA-GlnR*3-Phe-NH2 [I-1777] | ≤ 10 |
| Ac-PL3-Asp-DipA-B5-Asp-3COOHF-CyLeu-Ala-Phe-Lys*3-PyrS2-2F3MeF-BztA-GlnR*3-Ser-NH2 [I-1772] | ≤ 10 |
| Ac-PL3-Asp-DipA-B5-Asp-3COOHF-CyLeu-Ala-Phe-Lys*3-PyrS2-2F3MeF-BztA-GlnR*3-Val-NH2 [I-1774] | ≤ 10 |
| Ac-PL3-Asp-DipA-B5-Asp-3COOHF-CyLeu-Ala-Phe-Lys*3-PyrS2-3Thi-34ClF-GlnR*3-Ala-NH2 [I-1118] | ≤ 10 |
| Ac-PL3-Asp-DipA-B5-Asp-3COOHF-CyLeu-Ala-Phe-Lys*3-PyrS2-3Thi-34ClF-GlnR*3-NH2 [I-1117] | ≤ 10 |
| Ac-PL3-Asp-DipA-B5-Asp-3COOHF-Val-Ala-Phe-Lys*3-PyrS2-3Thi-BztA-GlnR*3-Ala-NH2 [I-984] | ≤ 10 |
| Ac-PL3-Asp-DipA-B5-Asp-3COOHF-Val-Ala-Phe-Lys*3-PyrS2-Phe-BztA-GlnR*3-dPro-NH2 [I-1855] | ≤ 10 |
| Ac-PL3-Asp-DipA-B5-Asp-3COOHF-nLeu-Ala-Phe-Lys*3-PyrS2-3Thi-BztA-GlnR*3-Ala-NH2 [I-986] | ≤ 10 |
| Ac-PL3-Asp-DipA-B5-aThr-3COOHF-nLeu-Ala-Phe-Lys*3-PyrS2-3Thi-34ClF-GlnR*3-NH2 [I-1639] | ≤ 10 |
| Ac-PL3-Asp-Ile-B5-Asp-3COOHF-Aib-Ala-Phe-1MeK*3-PyrS2-Phe-34ClF-GlnR*3-NH2 [I-1369] | ≤ 10 |
| Ac-PL3-Asp-Ile-B5-Asp-3COOHF-Aib-Ala-Phe-1MeK*3-PyrS2-Phe-34ClF-hGlnR*3-NH2 [I-1373] | > 20 |
| Ac-PL3-Asp-Ile-B5-Asp-3COOHF-Aib-Ala-Phe-GlnR*3-PyrS2-Phe-34ClF-1MeK*3-NH2 [I-1370] | ≤ 10 |
| Ac-PL3-Asp-Ile-B5-Asp-3COOHF-Aib-Ala-Phe-GlnR*3-PyrS2-Phe-34ClF-AsnEDA*3-NH2 [I-1376] | ≤ 10 |
| Ac-PL3-Asp-Ile-B5-Asp-3COOHF-Aib-Ala-Phe-GlnR*3-PyrS2-Phe-34ClF-Lys*3-NH2 [I-1367] | ≤ 10 |
| Ac-PL3-Asp-Ile-B5-Asp-3COOHF-Aib-Ala-Phe-Lys*3-PyrS2-2FF-34ClF-GlnR*3-NH2 [I-1539] | ≤ 10 |
| Ac-PL3-Asp-Ile-B5-Asp-3COOHF-Aib-Ala-Phe-Lys*3-PyrS2-2MeF-34ClF-GlnR*3-NH2 [I-1508] | ≤ 10 |
| Ac-PL3-Asp-Ile-B5-Asp-3COOHF-Aib-Ala-Phe-Lys*3-PyrS2-Phe-3BrF-GlnR*3-NH2 [I-1604] | ≤ 10 |
| Ac-PL3-Asp-Ile-B5-Asp-3COOHF-Aib-Ala-Phe-Lys*3-PyrS2-Phe-3ClF-GlnR*3-NH2 [I-1598] | ≤ 10 |
| Ac-PL3-Asp-Ile-B5-Asp-3COOHF-Aib-Ala-Phe-Lys*3-PyrS2-Phe-34ClF-hGlnR*3-NH2 [I-1371] | > 20 |
| Ac-PL3-Asp-Ile-B5-Asp-3COOHF-Aib-Ala-Phe-TriAzLys*3-PyrS2-Phe-34ClF-sCH2S*3-NH2 [I-1858] | ≤ 10 |
| Ac-PL3-Asp-Ile-B5-Asp-3COOHF-Aib-Ala-Phe-TriAzOrn*3-PyrS2-Phe-34ClF-sCH2S*3-NH2 [I-1860] | ≤ 10 |
| Ac-PL3-Asp-Ile-B5-Asp-3COOHF-Aib-Ala-Phe-hGlnR*3-PyrS2-Phe-34ClF-Lys*3-NH2 [I-1372] | ≤ 10 |
| Ac-PL3-Asp-Ile-B5-Asp-3COOHF-Aib-Ala-Phe-sAla*3-PyrS2-Phe-34ClF-TriAzLys*3-NH2 [I-1857] | 10 to 20 |
| Ac-PL3-Asp-Ile-B5-Asp-3COOHF-Aib-Ala-Phe-sCH2S*3-PyrS2-Phe-34ClF-TriAzLys*3-NH2 [I-1859] | ≤ 10 |
